According to patent US7994279B2, “Altered peptide ligands of GAD65” (The University of Toledo, priority 2006, dated 2011):
Blank lines part the entries; values can stand above or below the substance they belong to.

What was measured:
CTL clones = experiment: IFN release by CTL clones (FIG. 7, Table I); type: cell-based; parameters: Percent Reduction of IFN release: concentration or dose not given beside the values
CTL clone 14.86 = experiment: THF release by CTL clone 14.86 (FIG. 8, Table 2); type: cell-based; conditions: for Percent Reduction of THF: clone 14.86
From the text: ID No.:11] decreases THF of CTL clone 14.86.

HLA.A2 = experiment: Binding of GAD65 546-554 fragments to human MHC class I
From the text: Treatments which reduce GAD65 response can ameliorate Type 1 diabetes in NOD mice (spontaneous responses in NOD and NOD.HLA.A2 mice; the GAD65 546-554 fragments bind Kd and HLA.A2). Unlike the GAD65 molecule, the APL compositions can target a specific set of T cells and reduce the risk of accidental activation of pathogenic T cells.
The mouse (Kd) and human (HLA-A2) are associated with increased risk of Type 1 diabetes.

Substance: S-Y-Q-P-L-G-D-K-A (SYQPLGDKA) [APL-70]
Percent Reduction of IFN release (CTL clones; clone 14.69, A375): 41% | Percent Reduction of IFN release (CTL clones; clone 14.69, B7): 27% | Percent Reduction of IFN release (CTL clones; clone 14.81, A375): 31% | Percent Reduction of IFN release (CTL clones; clone 14.81, B7): 23% | Percent Reduction of IFN release (CTL clones; clone 14.86, A375): 16% | Percent Reduction of IFN release (CTL clones; clone 14.86, B7): 17% | IFN release (effect in words) (CTL clones; various CLT clones): decreases IFN release | THF of CTL clone (effect in words) (CTL clone 14.86; CTL clone 14.86): decreases THF | Percent Reduction of THF (CTL clone 14.86; A375): 37% | Percent Reduction of THF (CTL clone 14.86; B7): 34%

binding to HLA.A2 (HLA.A2): bind
Substance: GAD65 546-554: natural 546-554 fragment of glutamic acid decarboxylase GAD65; probably SEQ.ID No. 2 (SYQPLGDKV)
